Counter-ions that a name gives are not always drawn.
Tests used:
[1] = in vivo; settings: mouse
Text: (§1) The acting mechanism of alpha-hydroxy acids on microbes is unclear. It is plausible that these acids act as antimetabolites of the corresponding alpha-amino acids. […] After their resorption into the organism, these acids are metabolized through the same paths as the corresponding alpha-amino acids.

[2] = physchem; settings: for pH of maximum buffer capacity: mixture of the acid and a salt of said acid with a strong base
Text: as §1

[3] = system: micro-organisms; test: Antimicrobial effect of hydroxy acids on micro-organisms in vitro
[4] = system: leucine amino peptidase; settings: cited from earlier work
[5] = system: coliform bacterium strain (104); test: Effect of hydroxy acids on growth of coliform strain in vitro (turbidity 600 nm); type: cell-based; settings: MRS medium, 37° C.; 0.03, 0.1 and 0.3% tested
Experimental: (§2) In the example, the sensitivity of microbes isolated from the small intestine of broiler chickens to hydroxy acids were measured under laboratory conditions. For the test, a representative test organism species from each of the bacterium groups mentioned above was chosen. Of the hydroxy acids, HMB (2-hydroxy-3-methyl butric acid) and HMV (2-hydroxy-4-methyl valeric acid) were separately tested using their a mixture of their L- and D-forms as well as the pure L-form. The acids were added to the MRS growth medium of the bacterium so that resulting concentrations were controlled to 0.03, 0.1 and 0.3%. The organism growth was followed at 37° C. by measuring the turbidity of the culture at 600 nm wavelength.

[6] = system: Salmonella infantis; test: Effect of hydroxy acids on growth of Salmonella infantis in vitro (turbidity 600 nm); type: cell-based; settings: MRS medium, 37° C., 20 hours; 0.03, 0.1 and 0.3% tested
Experimental: In this example, an investigation was carried out into the sensitivity of Salmonella infantis bacterium representing the genus Salmonella to two hydroxy acids: L-2-hydroxy-3-methyl butyric acid (HMB) and L-2-hydroxy-4-methyl valeric acid (HMV). The acids were added to the MRS growth medium of the bacterium so that resulting concentrations were controlled to 0.03, 0.1 and 0.3%. The organism growth was followed at 37° C. for 20 hours by measuring the turbidity of the culture at 600 nm wavelength.

[7] = system: Enterococcus strain (111); test: Effect of hydroxy acids on growth of Enterococcus strain in vitro (turbidity 600 nm); type: cell-based; settings: MRS medium, 37° C.; 0.03, 0.1 and 0.3% tested
Experimental: as §2

SMILES: CC(C)C(O)C(=O)O (racemic) [Na-salt of d,l-2-hydroxy-3-methyl]
- LD50 ([1]; iv): 1080 mg/kg

SMILES: CC(C)CC(O)C(=O)O (racemic) [Na-salt of d,l-2-hydroxy-4-methyl]
- LD50 ([1]; in vivo): 650 mg/kg

SMILES: CC(C)C(O)C(=O)O (racemic) [d,l-2-hydroxy-3-methyl butyric acid]
- pKa [2]: 3.8
- pH of maximum buffer capacity [2]: 3.8 pH
- number of different micro-organisms on which an antimicrobial effect was shown [3]: about seventy

SMILES: CC(C)CC(O)C(=O)O (racemic) [d,l-2-hydroxy-4-methyl valeric acid]
- pKa [2]: 3.8
- pH of maximum buffer capacity [2]: 3.8 pH
- number of different micro-organisms on which an antimicrobial effect was shown [3]: about seventy

SMILES: CC(C)CC(O)C(=O)O (stereo not drawn) [2-hydroxy-4-methyl valeric acid]
- inhibition of leucine amino peptidase [4]: competitive inhibitor

SMILES: CC(C)[C@H](O)C(=O)O [HMB, L-2-hydroxy-3-methyl butyric acid]
- hydroxy acid concentration effectively inhibiting growth [5]: 0.1%
- hydroxy acid concentration clearly inhibiting growth [6]: 0.1%
- growth-inhibiting effect [7]: clear growth-inhibiting effect

SMILES: CC(C)C[C@H](O)C(=O)O [HMV, L-2-hydroxy-4-methyl valeric acid]
- hydroxy acid concentration effectively inhibiting growth [5]: 0.1%
- hydroxy acid concentration clearly inhibiting growth [6]: 0.1%
- growth-inhibiting effect [7]: clear growth-inhibiting effect

Reference: US6203835A, “Use of hydroxy acid or a product containing the same in animal feed” (Oy Extracta Ltd., priority 1995, dated 2001)
